Data from US20160024083A1, “COMPOUNDS AND METHODS FOR TREATING CANCERS” (HEALTH RESEARCH, INC., priority 2013, published 2016).
pIC50: −log10 of the molar value.

Columns and labels:
[1] = Tissue drug concentrations (tumor, liver, plasma) in treated CWR22R tumor-bearing mice; assay type: in vivo
Protocol: (§1) We tested these compounds in an in vivo efficacy experiment using model of CRPC in SCID mice, CWR22R. Two compounds, PLA1079 and 1125, which were synthesized in the amount of 500 mg were tested in full scale experiment with either 5 IV daily injections or 10 IP daily injections. After 5 IP or IV injections intra-tumor concentration of the compounds were measured in few mice from this experiment.
Two other compounds, PLA1148 and 1098 (PK testing in FIGS. 8 and 9) were tested in a small scale efficacy experiment. Upon PK testing of the compound PLA1148 one mouse was injected twice with 10 min interval. However the concentration of the drug in plasma of this mouse was not twice, but >4 times higher than in mice injected once. […] It was decided to utilize this observation in an attempt to get higher plasma and tumor concentration of both compounds. Therefore in the pilot efficacy experiment in the same model of CWR22R cells mice were treated with 2 IP injections with 10 minute interval. Treatment with PLA1098 was carried out for two days. […] However this is so far the highest concentration found in tumor. […]
(§2) LC50 data of in vitro 72 hours cytotoxicity assay are included in this table for comparison.

CWR22R = assay: cells; assay type: cell-based
Protocol: FIG. 21. Toxicity of PLA1055 to CWR22R cells in vitro depending on time of incubation. PLA1055 was added to CWR22R in full range of concentrations for the periods of time shown on the right. After that drug containing media were changed for drug free and survival of cells was detected at 72 hours after start of treatment using Alamar Blue assay (Promega).
(§3) This example provides a table (below) of the compounds of the present disclosure and their activity towards four different cell lines (i.e., CWR22R, HeLa, PC3, and MDA-MB-231). The IC50 for inhibition of growth is divided into 4 categories: A<1 μM, B 1-5 μM, C 5-20 μM, D>20 μM.
(§4) All compounds were tested for toxicity using 4 cells lines, target cells—CWR22R and non-target cells, Hela, PC3 and MDA-MB-231 (FIGS. 1A-F).
as §2
An in vitro experiment was run to detect the concentration of PLA1055 needed to kill all tumor cells in vitro (LC90) during different periods of time (30 minutes-72 hours, FIG. 21)).

[2] = Plasma concentration (PK) after intravenous and intraperitoneal injections; assay type: in vivo; conditions: 50-100 mg/kg; for plasma concentration time course: after IV and IP injections; for bioavailability through IP injection: plasma concentrations similar or even higher after IP than IV
CWR22R tumors = assay: In vivo efficacy, subcutaneous xenografts of CWR22R cells in SCID mice
Protocol: as §1
(§5) Two other compounds, PLA1148 and 1098 (PK testing in FIGS. 8 and 9) were tested in a small scale efficacy experiment. Upon PK testing of the compound PLA1148 one mouse was injected twice with 10 min interval. However the concentration of the drug in plasma of this mouse was not twice, but >4 times higher than in mice injected once. […] It was decided to utilize this observation in an attempt to get higher plasma and tumor concentration of both compounds. Therefore in the pilot efficacy experiment in the same model of CWR22R cells mice were treated with 2 IP injections with 10 minute interval. Treatment with PLA1098 was carried out for two days. […] However this is so far the highest concentration found in tumor.
Pilot efficacy experiments were run for compounds: PLA1163, PLA1148 using the same model of subcutaneous xenografts of CWR22R cells in SCID mice (FIGS. 18 and 19).

[3] = Toxicity / side effects in treated mice; assay type: in vivo
Protocol: as §5
This compound may be also potentially promising.

[4] = test system: presumable target protein; assay: DARTS (Drug Affinity Responsive Target Stability) assay in CWR22r lysates; assay type: binding; conditions: protein lysates from CWR22r cells
Protocol: FIG. 24. DARTS (Drug Affinity Responsive Target Stability) assay was performed using c52 and PLA1118. According to this assay these compounds are capable of protecting presumable target protein from protease degradation. Protein lysates from sensitive CWR22r cells were incubated with or without the drug and subsequently digested with the indicated concentration of pronase. A. c52 was used (lane T-treated, M-marker) with indicated concentrations of pronase; ability of c52 to protect its target from protease cleavage was judged based on presence of protein band in the treated lane vs the untreated (UT) control.
Target identification through affinity chromatography and sensitivity to proteolysis methods was undertaken. […] These bands were excised from gel and sent for protein sequencing. (FIG. 24).

SUM185PE = assay: Sensitivity to growth inhibition, SUM185PE; assay type: cell-based; conditions: Luminal breast carcinoma, AR+
HCC1419 = assay: Sensitivity to growth inhibition, HCC1419; assay type: cell-based; conditions: Luminal breast carcinoma, AR+
PPC1 = assay: Sensitivity to growth inhibition, PPC1; assay type: cell-based; conditions: castration resistant prostate cancer, AR−
C4-2 = assay: Sensitivity to growth inhibition, C4-2; assay type: cell-based; conditions: castration resistant prostate cancer, AR+
T47D = assay: Sensitivity to growth inhibition, T47D; assay type: cell-based; conditions: Luminal breast carcinoma, AR+
RCC45 = assay: Sensitivity to growth inhibition, RCC45; assay type: cell-based; conditions: renal cell carcinoma, AR−
MRC5 = assay: Sensitivity to growth inhibition, MRC5; assay type: cell-based; conditions: normal fibroblasts, AR−
ZR751 = assay: Sensitivity to growth inhibition, ZR751; assay type: cell-based; conditions: Luminal breast carcinoma, AR+
normal hepatocytes = assay: Sensitivity to growth inhibition, normal hepatocytes; assay type: cell-based
PC3 = assay: Inhibition of growth / toxicity in non-target PC3 cells; assay type: cell-based; conditions: castration resistant prostate cancer, AR−
Protocol: as §3, §4

PANC1 = assay: Sensitivity to growth inhibition, PANC1; assay type: cell-based; conditions: pancreatic adenocarcinoma, AR−
MiaPaca = assay: Sensitivity to growth inhibition, MiaPaca; assay type: cell-based; conditions: pancreatic adenocarcinoma, AR−
LNCaP = assay: Sensitivity to growth inhibition, LNCaP; assay type: cell-based; conditions: castration resistant prostate cancer, AR+
MCF7 = assay: Sensitivity to growth inhibition, MCF7; assay type: cell-based; conditions: Luminal breast carcinoma, AR+
MCF10A = assay: Sensitivity to growth inhibition, MCF10A; assay type: cell-based; conditions: mammary gland epithelium
HMEC = assay: Sensitivity to growth inhibition, HMEC; assay type: cell-based; conditions: normal breast
HCC202 = assay: Sensitivity to growth inhibition, HCC202; assay type: cell-based; conditions: Luminal breast carcinoma, AR−
MDA-MB-231 = assay: Inhibition of growth / toxicity in non-target MDA-MB-231 cells; assay type: cell-based; conditions: Homo sapiens
Protocol: as §3, §4

Hela = assay: Inhibition of growth / toxicity in non-target Hela cells; assay type: cell-based
Protocol: as §3, §4

ACHN = assay: Sensitivity to growth inhibition, ACHN; assay type: cell-based; conditions: renal cell carcinoma, AR−
CAMA1 = assay: Sensitivity to growth inhibition, CAMA1; assay type: cell-based; conditions: Luminal breast carcinoma, AR+
UACC893 = assay: Sensitivity to growth inhibition, UACC893; assay type: cell-based; conditions: Luminal breast carcinoma, AR+
AU565 = assay: Sensitivity to growth inhibition, AU565; assay type: cell-based; conditions: Luminal breast carcinoma, AR+
EFM192A = assay: Sensitivity to growth inhibition, EFM192A; assay type: cell-based; conditions: Luminal breast carcinoma, AR−
VCaP = assay: Sensitivity to growth inhibition, VCaP; assay type: cell-based; conditions: castration resistant prostate cancer, Armut
MDAMB415 = assay: Sensitivity to growth inhibition, MDAMB415; assay type: cell-based; conditions: Luminal breast carcinoma, AR+
Hep3B = assay: Sensitivity to growth inhibition, Hep3B; assay type: cell-based; conditions: hepatocellular carcinoma, AR +
MDAMB453 = assay: Sensitivity to growth inhibition, MDAMB453; assay type: cell-based; conditions: Luminal breast carcinoma, AR+
ZR7530 = assay: Sensitivity to growth inhibition, ZR7530; assay type: cell-based; conditions: Luminal breast carcinoma, AR+
SKRC45 = assay: Sensitivity to growth inhibition, SKRC45; assay type: cell-based; conditions: renal cell carcinoma, AR−
BT474 = assay: Sensitivity to growth inhibition, BT474; assay type: cell-based; conditions: Luminal breast carcinoma, AR+
HT1080 = assay: Sensitivity to growth inhibition, HT1080; assay type: cell-based; conditions: fibrosarcoma AR−
HepG2 = assay: Sensitivity to growth inhibition, HepG2; assay type: cell-based; conditions: hepatocellular carcinoma, AR +
NKE = assay: Sensitivity to growth inhibition, NKE; assay type: cell-based; conditions: normal kidney, AR−
Du145 = assay: Sensitivity to growth inhibition, Du145; assay type: cell-based; conditions: castration resistant prostate cancer, AR−
Caveolin 1 = Caveolin 1 expression in sensitive versus resistant cells; assay type: cell-based; conditions: MDA MB 231 and MCF7 cells
Protocol: FIG. 12. Expression of Caveolinl in sensitive versus resistant cells. Caveolinl is expressed in resistant MDA MB 231 cells, but not in sensitive MCF7 cells.
Analysis of gene expression among 50 breast cancer cell lines differed in sensitivity as well as shRNA screening of resistant breast cancer cells identified Calveolin (FIG. 11) as a potential gene associated with resistance to c52. mRNA expression of Calveolin1 was tested among our sensitive and resistant cells as well as in response to c52 treatment. As expected Calveolin1 was expressed only in resistant cells, however it was not changed upon c52 treatment (FIG. 12). […] Calveolin1 was cloned in lentiviral expression vector and are now testing if overexpression of Calveolin1 in sensitive cells will make them resistant to c52 treatment.

Mdm2 = Mdm2 accumulation, Western Blot; assay type: cell-based; conditions: MCF7 cells with functionally inactive p53 (R175H, GSE56)
Protocol: Results of Western Blot analysis: CWR22r cells were treated with 1 uM c52 for indicated time intervals.
(§6) Also tested was the hypothesis that degradation of androgen receptor in prostate and breast cancer cells may be due to p53 induced accumulation of mdm2, which is also ubiquitin ligase for androgen receptor (FIG. 15). p53 was inactivated in several cell lines using different approaches what led to the blockade of mdm2 accumulation after c52 treatment. However androgen receptor was still degraded in c52 treated cells even in the absence of p53 activation and mdm2 accumulation (FIG. 16).

androgen receptor = assay: Androgen receptor level / degradation in cells; assay type: cell-based; conditions: CWR22r or MCF7 cells with inhibited p53 activity
Description: as §6

p21 = p21 expression upon treatment; assay type: cell-based; conditions: sensitive cells

CCCn1c2ccccc2c2c3c(ccc21)C(=O)N(C)C3 [PLA1098]
Liver ([1]; 100 mg/kg, IP): 0 nM
Tumor concentration ([1]; 100 mg/kg, IP): 23 to 25 nM
Intratumor concentration ([1]; 2 tested tumors, 24 hours after last injection): 25 nM
compound in liver ([1]; 24 hours after last injection): no detectable
compound in plasma ([1]; 24 hours after last injection): no detectable
CC50 (CWR22R): 0.04 µM
plasma concentration time course [2]: fast reduction of concentration during the first hour
bioavailability through IP injection [2]: very high
tumor volume and tumor weight vs vehicle control (CWR22R tumors; CWR22R, 2 IP injections with 10 minute interval for two days, 12 days after treatment): certain reduction of tumor volume and tumor weigh in the 1098 treated group vs vehicle control, but not statistically significant
in vivo efficacy (CWR22R tumors; summary statement): evidence of in vivo efficacy
side effects during treatment ([3]; 2 IP injections with 10 minute interval, two days): no signs of side effects
signs of toxicity ([3]; summary statement): without any signs of toxicity
protection of target protein from pronase degradation [4]: protected their targets from degradation

CCCn1c2ccccc2c2cc(C(C)=O)ccc21 [Compound 1-3, 1-(9-propyl-9H-carbazol-3-yl)ethanone]
Compound 1-3 sensitivity (SUM185PE): S
Compound 1-3 sensitivity (HCC1419): R
Compound 1-3 sensitivity (PPC1): R
Compound 1-3 sensitivity (C4-2): S
Compound 1-3 sensitivity (T47D): S
Compound 1-3 sensitivity (RCC45): R
Compound 1-3 sensitivity (MRC5): R
Compound 1-3 sensitivity (ZR751): S
Compound 1-3 sensitivity (normal hepatocytes): R
Compound 1-3 sensitivity (PC3): R
Compound 1-3 sensitivity (PANC1): R
Compound 1-3 sensitivity (MiaPaca): R
Compound 1-3 sensitivity (LNCaP): S
Compound 1-3 sensitivity (MCF7): S
Compound 1-3 sensitivity (MCF10A): R
Compound 1-3 sensitivity (HMEC): R
Compound 1-3 sensitivity (HCC202): S
pIC50 (MDA-MB-231): < 4.70
Compound 1-3 sensitivity (Hela; Hela, cervix adenocarcinoma, AR−): R
pIC50 (Hela; Homo sapiens, HeLa): < 4.70
Compound 1-3 sensitivity (CWR22R; CWR22R, castration resistant prostate cancer, AR+): S
pIC50 (CWR22R; Homo sapiens, 22Rv1, CWR22R, read-out: IC50 for inhibition of growth): > 6.00
Compound 1-3 sensitivity (ACHN): R
Compound 1-3 sensitivity (CAMA1): R
Compound 1-3 sensitivity (UACC893): R
Compound 1-3 sensitivity (AU565): S
Compound 1-3 sensitivity (EFM192A): S
Compound 1-3 sensitivity (VCaP): R
Compound 1-3 sensitivity (MDAMB415): S
Compound 1-3 sensitivity (Hep3B): S
Compound 1-3 sensitivity (MDAMB453): S
Compound 1-3 sensitivity (ZR7530): S
Compound 1-3 sensitivity (SKRC45): R
Compound 1-3 sensitivity (BT474): S
Compound 1-3 sensitivity (HT1080): R
Compound 1-3 sensitivity (HepG2): S
Compound 1-3 sensitivity (NKE): R
Compound 1-3 sensitivity (Du145): R

CCCn1c2ccccc2c2cc(-c3nnco3)ccc21 [PLA1079]
Tumor concentration ([1]; 100 mg/kg, IP/IV): 24 to 48 nM
Caveolin1 expression upon treatment (Caveolin 1): did not change levels of Caveolinl expression
CC50 (CWR22R): 0.12 µM
Mdm2 level (Mdm2): Mdm2 is no longer overexpressed
AR level (androgen receptor): AR is being degraded
plasma concentration time course [2]: fast reduction of concentration during the first hour
bioavailability through IP injection [2]: very high
p21 expression (p21): overexpression of p21 in sensitive cells
in vivo efficacy (CWR22R tumors; CWR22R in SCID mice, 5 IV daily injections or 10 IP daily injections): absence of in vivo efficacy
